From PubChem BioAssay AID1918996 (Molecular Pharmacology Branch, DTP, NCI, 2023)
Where “and” joins values, the source holds several entries; their conditions need not be identical. Equal entries are not always repeated.

Test system: 349418-098-R-PDC complex spheroid growth
Experiment: Anticancer human tumor 349418-098-R-PDC patient-derived lung adenocarcinoma cell line growth inhibition [AhR]
Conditions: for viability, T/C: stronger effect = lower value
Procedure, shortened: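 Spheroids combined tumor cells with HUVEC endothelial cells and human MSCs as stroma. AhR antagonists were paired with standard or investigational drugs, each dosed in half-log steps down from near clinical Cmax, or from 10 microM where Cmax was unknown.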

[1] = curve of first compound, second compound 0.1 µM
[2] = curve of first compound, second compound 0.316 µM
[3] = curve of first compound, second compound 1 µM
[4] = curve of first compound, second compound 3.16 µM
[5] = curve of first compound, second compound 10 µM
[6] = second compound 0.1 µM, first compound 0.0316 µM
[7] = second compound 0.1 µM, first compound 0.1 µM
[8] = second compound 0.316 µM, first compound 0.0316 µM
[9] = second compound 0.316 µM, first compound 0.1 µM
[10] = second compound 1 µM, first compound 0.0316 µM
[11] = second compound 1 µM, first compound 0.1 µM
[12] = second compound 3.16 µM, first compound 0.0316 µM
[13] = second compound 3.16 µM, first compound 0.1 µM
[14] = second compound 10 µM, first compound 0.0316 µM
[15] = second compound 10 µM, first compound 0.1 µM
[16] = second compound 0.1 µM, first compound 0.000949 µM
[17] = second compound 0.1 µM, first compound 0.003 µM
[18] = second compound 0.1 µM, first compound 0.00949 µM
[19] = second compound 0.1 µM, first compound 0.03 µM
[20] = second compound 0.1 µM, first compound 0.0949 µM
[21] = second compound 0.1 µM, first compound 0.3 µM
[22] = second compound 0.316 µM, first compound 0.000949 µM
[23] = second compound 0.316 µM, first compound 0.003 µM
[24] = second compound 0.316 µM, first compound 0.00949 µM
[25] = second compound 0.316 µM, first compound 0.03 µM
[26] = second compound 0.316 µM, first compound 0.0949 µM
[27] = second compound 0.316 µM, first compound 0.3 µM
[28] = second compound 1 µM, first compound 0.000949 µM
[29] = second compound 1 µM, first compound 0.003 µM
[30] = second compound 1 µM, first compound 0.00949 µM
[31] = second compound 1 µM, first compound 0.03 µM
[32] = second compound 1 µM, first compound 0.0949 µM
[33] = second compound 1 µM, first compound 0.3 µM
[34] = second compound 3.16 µM, first compound 0.000949 µM
[35] = second compound 3.16 µM, first compound 0.003 µM
[36] = second compound 3.16 µM, first compound 0.00949 µM
[37] = second compound 3.16 µM, first compound 0.03 µM
[38] = second compound 3.16 µM, first compound 0.0949 µM
[39] = second compound 3.16 µM, first compound 0.3 µM
[40] = second compound 10 µM, first compound 0.000949 µM
[41] = second compound 10 µM, first compound 0.003 µM
[42] = second compound 10 µM, first compound 0.00949 µM
[43] = second compound 10 µM, first compound 0.03 µM
[44] = second compound 10 µM, first compound 0.0949 µM
[45] = second compound 10 µM, first compound 0.3 µM
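Note: spheroids exposed to agents for seven days before luminescence viability read.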
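Throughout, for viability, T/C: spheroids also contain HUVEC endothelial cells and human MSC stroma.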

COc1cccc2c1C(=O)c1c(O)c3c(c(O)c1C2=O)CC(O)(C(=O)CO)CC3OC1CC(N)C(O)C(C)O1 (configuration not stated) + Cc1cncc(-c2nc(NCCc3c[nH]c4ccccc34)c3ncn(C(C)C)c3n2)c1
IC50 [1]: < 31.6 nM | IC50 [2]: < 31.6 nM | IC50 [3]: < 31.6 nM | IC50 [4]: < 31.6 nM | IC50 [5]: < 31.6 nM | viability, T/C [6]: 12.1% | viability, T/C [7]: 6.61% | viability, T/C (second compound 0.1 µM, first compound 0.316 µM): 1.44% | viability, T/C (second compound 0.1 µM, first compound 1 µM): 0.29% | viability, T/C (second compound 0.1 µM, first compound 3.16 µM): 2.68% | viability, T/C (second compound 0.1 µM, first compound 10 µM): 3.48% | viability, T/C [8]: 11.5% | viability, T/C [9]: 6.41% | viability, T/C (second compound 0.316 µM, first compound 0.316 µM): 1.16% | viability, T/C (second compound 0.316 µM, first compound 1 µM): 0.42% | viability, T/C (second compound 0.316 µM, first compound 3.16 µM): 2.47% | viability, T/C (second compound 0.316 µM, first compound 10 µM): 4% | viability, T/C [10]: 10.5% | viability, T/C [11]: 4.41% | viability, T/C (second compound 1 µM, first compound 0.316 µM): 1.26% | viability, T/C (second compound 1 µM, first compound 1 µM): 0.31% | viability, T/C (second compound 1 µM, first compound 3.16 µM): 2.61% | viability, T/C (second compound 1 µM, first compound 10 µM): 3.54% | viability, T/C [12]: 4.44% | viability, T/C [13]: 3.03% | viability, T/C (second compound 3.16 µM, first compound 0.316 µM): 0.5% | viability, T/C (second compound 3.16 µM, first compound 1 µM): 0.32% | viability, T/C (second compound 3.16 µM, first compound 3.16 µM): 2.14% | viability, T/C (second compound 3.16 µM, first compound 10 µM): 3.34% | viability, T/C [14]: 0.79% | viability, T/C [15]: 0.69% | viability, T/C (second compound 10 µM, first compound 0.316 µM): 0.23% | viability, T/C (second compound 10 µM, first compound 1 µM): 0.5% | viability, T/C (second compound 10 µM, first compound 3.16 µM): 1.35% | viability, T/C (second compound 10 µM, first compound 10 µM): 1.99%

CCc1c2c(nc3ccc(O)cc13)-c1cc3c(c(=O)n1C2)COC(=O)[C@]3(O)CC + Cc1cncc(-c2nc(NCCc3c[nH]c4ccccc34)c3ncn(C(C)C)c3n2)c1
IC50 [1]: < 0.949 nM | IC50 [2]: < 0.949 nM | IC50 [3]: < 0.949 nM | IC50 [4]: < 0.949 nM | IC50 [5]: < 0.949 nM | viability, T/C [16]: 49.5% | viability, T/C [17]: 24.2% | viability, T/C [18]: 6.34% | viability, T/C [19]: 3.54% | viability, T/C [20]: 2.3% | viability, T/C [21]: 1.59% | viability, T/C [22]: 47.7% | viability, T/C [23]: 16.8% | viability, T/C [24]: 5.66% | viability, T/C [25]: 3.5% | viability, T/C [26]: 2.11% | viability, T/C [27]: 1.51% | viability, T/C [28]: 41.9% | viability, T/C [29]: 14.4% | viability, T/C [30]: 5.54% | viability, T/C [31]: 3.53% | viability, T/C [32]: 2.48% | viability, T/C [33]: 1.41% | viability, T/C [34]: 12.8% | viability, T/C [35]: 6.98% | viability, T/C [36]: 3.19% | viability, T/C [37]: 2.37% | viability, T/C [38]: 1.61% | viability, T/C [39]: 1.27% | viability, T/C [40]: 1.19% | viability, T/C [41]: 1.44% | viability, T/C [42]: 0.76% | viability, T/C [43]: 0.65% | viability, T/C [44]: 0.41% | viability, T/C [45]: 0.29%

CC(C)CC(NC(=O)C(Cc1ccccc1)NC(=O)c1cnccn1)B(O)O (configuration not stated) + CC(CO)NC(=O)c1cc(-c2ccc(Cl)cc2)nn(-c2cnn(C)c2)c1=O
IC50 [1]: < 0.949 nM | IC50 [2]: < 0.949 nM | IC50 [3]: < 0.949 nM | IC50 [4]: < 0.949 nM | IC50 [5]: < 0.949 nM | viability, T/C [16]: 23.1% | viability, T/C [17]: 6.06% | viability, T/C [18]: 3.66% | viability, T/C [19]: 2.47% | viability, T/C [20]: 2.75% | viability, T/C [21]: 1.27% | viability, T/C [22]: 24.2% | viability, T/C [23]: 6.19% | viability, T/C [24]: 4.09% | viability, T/C [25]: 1.94% | viability, T/C [26]: 2.38% | viability, T/C [27]: 1.96% | viability, T/C [28]: 22.5% | viability, T/C [29]: 5.68% | viability, T/C [30]: 2.71% | viability, T/C [31]: 2.61% | viability, T/C [32]: 1.69% | viability, T/C [33]: 1.84% | viability, T/C [34]: 21.1% | viability, T/C [35]: 6.77% | viability, T/C [36]: 2.56% | viability, T/C [37]: 1.42% | viability, T/C [38]: 1.44% | viability, T/C [39]: 1.95% | viability, T/C [40]: 23.2% | viability, T/C [41]: 6.76% | viability, T/C [42]: 2.77% | viability, T/C [43]: 1.65% | viability, T/C [44]: 1.33% | viability, T/C [45]: 1.68%

Cn1ncnc1C1c2n[nH]c(=O)c3cc(F)cc(c23)NC1c1ccc(F)cc1 (configuration not stated) + Cc1cncc(-c2nc(NCCc3c[nH]c4ccccc34)c3ncn(C(C)C)c3n2)c1
IC50 [1]: > 100 nM | IC50 [2]: > 100 nM | IC50 [3]: > 100 nM | IC50 [4]: < 0.316 nM | IC50 [5]: < 0.316 nM | viability, T/C (second compound 0.1 µM, first compound 0.000316 µM): 94.4% | viability, T/C (second compound 0.1 µM, first compound 0.001 µM): 93.9% | viability, T/C (second compound 0.1 µM, first compound 0.00316 µM): 92.2% | viability, T/C (second compound 0.1 µM, first compound 0.01 µM): 87.8% | viability, T/C [6]: 82.5% | viability, T/C [7]: 80.6% | viability, T/C (second compound 0.316 µM, first compound 0.000316 µM): 90.1% | viability, T/C (second compound 0.316 µM, first compound 0.001 µM): 98% | viability, T/C (second compound 0.316 µM, first compound 0.00316 µM): 85.7% | viability, T/C (second compound 0.316 µM, first compound 0.01 µM): 88% | viability, T/C [8]: 85.6% | viability, T/C [9]: 78.5% | viability, T/C (second compound 1 µM, first compound 0.000316 µM): 86.7% | viability, T/C (second compound 1 µM, first compound 0.001 µM): 81.6% | viability, T/C (second compound 1 µM, first compound 0.00316 µM): 89.8% | viability, T/C (second compound 1 µM, first compound 0.01 µM): 78.2% | viability, T/C [10]: 78.8% | viability, T/C [11]: 78.4% | viability, T/C (second compound 3.16 µM, first compound 0.000316 µM): 17.9% | viability, T/C (second compound 3.16 µM, first compound 0.001 µM): 23.4% | viability, T/C (second compound 3.16 µM, first compound 0.00316 µM): 23.8% | viability, T/C (second compound 3.16 µM, first compound 0.01 µM): 19.4% | viability, T/C [12]: 25.5% | viability, T/C [13]: 21.6% | viability, T/C (second compound 10 µM, first compound 0.000316 µM): 2.6% | viability, T/C (second compound 10 µM, first compound 0.001 µM): 2.33% | viability, T/C (second compound 10 µM, first compound 0.00316 µM): 3.01% | viability, T/C (second compound 10 µM, first compound 0.01 µM): 2.42% | viability, T/C [14]: 2.36% | viability, T/C [15]: 2.64%

COc1cccc2c1C(=O)c1c(O)c3c(c(O)c1C2=O)CC(O)(C(=O)CO)CC3OC1CC(N)C(O)C(C)O1 (configuration not stated)
viability, T/C (compound 0.0316 µM): 12.1% and 24.6% and 20.9% | viability, T/C (compound 0.1 µM): 7.69% and 19% and 13.3% | viability, T/C (compound 0.316 µM): 1.29% and 5.3% and 4.49% | viability, T/C (compound 1 µM): 0.27% and 0.62% and 0.79% | viability, T/C (compound 3.16 µM): 2.73% and 2.97% and 3.14% | viability, T/C (compound 10 µM): 4.37% and 6.2% and 5.59% | IC50 (curve of compound): < 31.6 nM
